# In patent US20250382305A1 (PTC THERAPEUTICS, INC., priority 2022, published 2025):
# Experiments:
# [1] = tested on: Total ATXN3 (tATXN3) protein; assay: Endogenous Total ATXN3 (tATXN3) Protein Assay (MSD immunoassay of cell lysates); type: cell-based; settings: average IC50, total ATXN3 protein in cell lysate after 48 h with compound (Table 1)
# Summary of the method: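 Cells in DMEM/10% FBS were plated at 10,000 per well onto 7-point, 3.16-fold compound dilutions in duplicate for 48 h at 37° C, then lysed. Total ATXN3 in lysates was measured by MSD sandwich immunoassay: mouse anti-ATXN3 capture, rabbit anti-ATXN3 detection, SULFO-TAG anti-rabbit. Average IC50 was reported in star bins.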
# ATXN3 pre-mRNA = assay: RT-qPCR Assay to Quantify Exon 4 Skipping in ATXN3 pre-mRNA in Cells; type: cell-based; settings: percent exon 4 skipping in ATXN3 pre-mRNA, RT-qPCR of cell lysates; average IC50
# Summary of the method: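 Cells plated at 10,000/well onto a 7-point, 3.16-fold DMSO dilution series (duplicates), incubated 24 h at 37 °C, then lysed. Exon 4 skipping measured by one-step RT-qPCR (48 °C RT, 40 cycles); IC50 interpolated from dose-response fit of percent skipping.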
Compound,IC50 [1] [nM],IC50 (ATXN3 pre-mRNA) [nM]
"[2H]C1=C([2H])C([2H])([2H])[C@@H](c2sc3c(NCc4ccco4)cc(Cl)nc3c2Cl)[C@H](N)C1([2H])[2H] [Compound 369, 2-((1R,6R)-6-aminocyclohex-3-en-1-yl-2,2,3,4,5,5-d6)-3,5-dichloro-N-(furan-2-ylmethyl)thieno[3,2-b]pyridin-7-amine]",30 to 300,30 to 300
"Cc1c([C@@H]2OCCC[C@H]2N)sc2c(NCc3cccs3)cc(Cl)nc12 (single isomer, unassigned) [Compound 44, 2-((2R,3R)-3-aminotetrahydro-2H-pyran-2-yl)-5-chloro-3-methyl-N-(thiophen-2-ylmethyl)thieno[3,2-b]pyridin-7-amine or 2-((2S,3S)-3-aminotetrahydro-2H-pyran-2-yl)-5-chloro-3-methyl-N-(thiophen-2-ylmethyl)thieno[3,2-b]pyridin-7-amine]",> 1000,> 1000
"CC#CCNc1nc(Cl)nc2c(I)c([C@H]3CC=CC[C@@H]3N)sc12 [Compound 219, 6-((1S,6S)-6-aminocyclohex-3-en-1-yl)-N-(but-2-yn-1-yl)-2-chloro-7-iodothieno[3,2-d]pyrimidin-4-amine]",≤ 30,≤ 30
"N[C@H]1CCCO[C@@H]1c1sc2c(NCc3cccs3)cc(Cl)nc2c1C#CCO (mixture of isomers) [Compound 252, 3-(2-((2R,3R)-3-aminotetrahydro-2H-pyran-2-yl)-5-chloro-7-((thiophen-2-ylmethyl)amino)thieno[3,2-b]pyridin-3-yl)prop-2-yn-1-ol and 3-(2-((2S,3S)-3-aminotetrahydro-2H-pyran-2-yl)-5-chloro-7-((thiophen-2-ylmethyl)amino)thieno[3,2-b]pyridin-3-yl)prop-2-yn-1-ol]",30 to 300,≤ 30
"2-((1R,2R)-2-amino-5,5-dimethylcyclohexyl)-3-bromo-5-chloro-N-(thiophen-2-ylmethyl)thieno[3,2-b]pyridin-7-amine and 2-((1S,2S)-2-amino-5,5-dimethylcyclohexyl)-3-bromo-5-chloro-N-(thiophen-2-ylmethyl)thieno[3,2-b]pyridin-7-amine [Compound 149]",30 to 300,30 to 300
"N#Cc1cc(NCc2ccco2)c2sc([C@@H]3CC=CC[C@H]3N)c(Cl)c2n1 [Compound 443, 2-((1R,6R)-6-aminocyclohex-3-en-1-yl)-3-chloro-7-((furan-2-ylmethyl)amino)thieno[3,2-b]pyridine-5-carbonitrile]",≤ 30,≤ 30
"N[C@H]1COCC[C@@H]1c1sc2c(NCc3nccs3)cc(Cl)nc2c1Cl [Compound 337, 2-((3R,4S)-3-aminotetrahydro-2H-pyran-4-yl)-3,5-dichloro-N-(thiazol-2-ylmethyl)thieno[3,2-b]pyridin-7-amine]",30 to 300,30 to 300
"N[C@H]1CC=CC[C@@H]1c1sc2c(NCc3ccncc3)cc(Cl)nc2c1Br [Compound 198, 2-((1S,6S)-6-aminocyclohex-3-en-1-yl)-3-bromo-5-chloro-N-(pyridin-4-ylmethyl)thieno[3,2-b]pyridin-7-amine]",≤ 30,≤ 30
"CCc1c([C@H]2CCCC[C@@H]2N)sc2c(NCc3cccs3)cc(Cl)nc12 (single isomer, unassigned) [Compound 40, 2-((1S,2S)-2-aminocyclohexyl)-5-chloro-3-ethyl-N-(thiophen-2-ylmethyl)thieno[3,2-b]pyridin-7-amine or 2-((1R,2R)-2-aminocyclohexyl)-5-chloro-3-ethyl-N-(thiophen-2-ylmethyl)thieno[3,2-b]pyridin-7-amine]",30 to 300,30 to 300
"N[C@@H]1CCCO[C@H]1c1sc2c(NCc3ccco3)nc(Cl)nc2c1Br (single isomer, unassigned) [Compound 42, 6-((2R,3R)-3-aminotetrahydro-2H-pyran-2-yl)-7-bromo-2-chloro-N-(furan-2-ylmethyl)thieno[3,2-d]pyrimidin-4-amine or 6-((2S,3S)-3-aminotetrahydro-2H-pyran-2-yl)-7-bromo-2-chloro-N-(furan-2-ylmethyl)thieno[3,2-d]pyrimidin-4-amine]",300 to 1000,300 to 1000
"N[C@@H]1CCCCCC[C@@H]1c1sc2c(NCc3cccs3)cc(Cl)nc2c1Cl [Compound 98, 2-((1S,2R)-2-aminocyclooctyl)-3,5-dichloro-N-(thiophen-2-ylmethyl)thieno[3,2-b]pyridin-7-amine]",> 1000,> 1000
"2-((1R,2R)-2-amino-5,5-difluorocyclohexyl)-5-chloro-3-methyl-N-(thiophen-2-ylmethyl)thieno[3,2-b]pyridin-7-amine and 2-((1S,2S)-2-amino-5,5-difluorocyclohexyl)-5-chloro-3-methyl-N-(thiophen-2-ylmethyl)thieno[3,2-b]pyridin-7-amine [Compound 333]",30 to 300,30 to 300
"2-(3-aminotetrahydro-2H-pyran-2-yl)-N-benzyl-3-bromo-5-chlorothieno[3,2-b]pyridin-7-amine [Compound 27]",30 to 300,≤ 30
"2-((3R,4S)-4-aminotetrahydro-2H-pyran-3-yl)-3-bromo-5-chloro-N-(thiophen-2-ylmethyl)thieno[3,2-b]pyridin-7-amine and 2-((3S,4R)-4-aminotetrahydro-2H-pyran-3-yl)-3-bromo-5-chloro-N-(thiophen-2-ylmethyl)thieno[3,2-b]pyridin-7-amine [Compound 204]",≤ 30,≤ 30
"N[C@H]1CCCO[C@@H]1c1c(Cl)c2nc(Cl)nc(NCc3ccco3)c2n1C(F)F [Compound 271, 6-((2S,3S)-3-aminotetrahydro-2H-pyran-2-yl)-2,7-dichloro-5-(difluoromethyl)-N-(furan-2-ylmethyl)-5H-pyrrolo[3,2-d]pyrimidin-4-amine]",30 to 300,30 to 300
"N[C@H]1CCCCC[C@H]1c1sc2c(NCc3cccs3)cc(Cl)nc2c1Br [Compound 73, 2-((1R,2S)-2-aminocycloheptyl)-3-bromo-5-chloro-N-(thiophen-2-ylmethyl)thieno[3,2-b]pyridin-7-amine]",300 to 1000,300 to 1000
"N[C@H]1COCC[C@@H]1c1sc2c(NCc3ccncc3)cc(Cl)nc2c1Br [Compound 364, 2-((3R,4S)-3-aminotetrahydro-2H-pyran-4-yl)-3-bromo-5-chloro-N-(pyridin-4-ylmethyl)thieno[3,2-b]pyridin-7-amine]",30 to 300,30 to 300
"N[C@@H]1CC=CC[C@H]1c1sc2c(NCc3cccs3)cc(Cl)nc2c1Cl.N[C@H]1CC=CC[C@@H]1c1sc2c(NCc3cccs3)cc(Cl)nc2c1Cl (mixture of isomers) [Compound 431, 2-((1R,6R)-6-aminocyclohex-3-en-1-yl)-3,5-dichloro-N-(thiophen-2-ylmethyl)thieno[3,2-b]pyridin-7-amine and 2-((1S,6S)-6-aminocyclohex-3-en-1-yl)-3,5-dichloro-N-(thiophen-2-ylmethyl)thieno[3,2-b]pyridin-7-amine]",≤ 30,≤ 30
"N[C@H]1CCCCCC[C@H]1c1sc2c(NCc3cccs3)cc(Cl)nc2c1Cl [Compound 91, 2-((1R,2S)-2-aminocyclooctyl)-3,5-dichloro-N-(thiophen-2-ylmethyl)thieno[3,2-b]pyridin-7-amine]",> 1000,> 1000
"N[C@H]1CCC(=O)C[C@@H]1c1sc2c(NCc3ccco3)cc(Cl)nc2c1Cl [Compound 221, (3S,4S)-4-amino-3-(3,5-dichloro-7-((furan-2-ylmethyl)amino)thieno[3,2-b]pyridin-2-yl)cyclohexan-1-one]",≤ 30,≤ 30
"Cc1c([C@@H]2CC=CC[C@H]2N)sc2c(NCc3ccco3)nc(Cl)nc12 [Compound 413, 6-((1R,6R)-6-aminocyclohex-3-en-1-yl)-2-chloro-N-(furan-2-ylmethyl)-7-methylthieno[3,2-d]pyrimidin-4-amine]",30 to 300,30 to 300
"N[C@@H]1[C@@H](O)C=CC[C@H]1c1sc2c(NCc3cccs3)cc(Cl)nc2c1Cl.N[C@H]1[C@H](O)C=CC[C@@H]1c1sc2c(NCc3cccs3)cc(Cl)nc2c1Cl (mixture of isomers) [Compound 127, (1R,5S,6R)-6-amino-5-(3,5-dichloro-7-((thiophen-2-ylmethyl)amino)thieno[3,2-b]pyridin-2-yl)cyclohex-2-en-1-ol and (1S,5R,6S)-6-amino-5-(3,5-dichloro-7-((thiophen-2-ylmethyl)amino)thieno[3,2-b]pyridin-2-yl)cyclohex-2-en-1-ol]",30 to 300,30 to 300
"CC#CCNc1cc(Cl)nc2c(I)c([C@H]3CC=CC[C@@H]3N)sc12 [Compound 202, 2-((1S,6S)-6-aminocyclohex-3-en-1-yl)-N-(but-2-yn-1-yl)-5-chloro-3-iodothieno[3,2-b]pyridin-7-amine]",≤ 30,≤ 30
"N[C@H]1CCC[C@@H]1c1sc2c(NCc3cccs3)cc(Cl)nc2c1-c1ccccc1 [Compound 131, 2-((1S,2S)-2-aminocyclopentyl)-5-chloro-3-phenyl-N-(thiophen-2-ylmethyl)thieno[3,2-b]pyridin-7-amine]",> 1000,> 1000
"N[C@@H]1CC=CC[C@H]1c1sc2c(NCc3ccccc3)cc(Cl)nc2c1I [Compound 345, 2-((1R,6R)-6-aminocyclohex-3-en-1-yl)-N-benzyl-5-chloro-3-iodothieno[3,2-b]pyridin-7-amine]",30 to 300,30 to 300
